From patent US9486519B2, “Use of FLT3 ligand for enhancing immune responses in RNA immunization” (BioNTech AG, priority 2008, dated 2016)

Columns and labels:
[1] = system: macropinocytosis; experiment: Intranodal RNA immunization after Rottlerin pretreatment of lymph nodes, tetramer measurement; format: in vivo, C57Bl/6 mice; settings: SIINFEKL-coding RNA 20 μg intranodally d0 and d3; lymph nodes pretreated
Experimental: (e) C57Bl/6 mice (n=3) were immunized intranodally on d0 and d3 with […]-coding RNA (20 μg). On both days the lymph nodes were pretreated with Rottlerin as described above. On day 8 the success of immunization was quantified by tetramer measurement in the peripheral blood. The success of intranodal RNA immunization correlated directly with the ability of cells to take up RNA by macropinocytosis.
To verify whether the in vivo inhibition of macropinocytosis has an effect on the efficiency of T cell priming after intranodal RNA immunization, C57/B16 mice (n=3) were immunized intranodally on d0 and d3 with […]-coding RNA (20 μg). On both days the lymph nodes were pretreated with Rottlerin as described above. The mean+SEM of the frequency of CD8+ antigen-specific T lymphocytes is shown. […] FIG. 6(e).
The main uptake mechanism of RNA uptake is macropinocytosis.

[2] = system: human iDCs; experiment: RNA uptake by human iDCs pretreated with macropinocytosis inhibitors, luciferase test; format: cell-based; settings: 15 min luciferase-RNA or Cy3-RNA
Experimental: (b-c) Human iDCs were pretreated with various inhibitors (dimethyl amiloride, cytochalasin D, LY294002, Rottlerin) and then coincubated for 15 min with luciferase-RNA or Cy3-RNA. After 24 h the luciferase signal was quantified in a standard luminescence test.
To verify whether the macropinocytosis constitutively active in iDCs is relevant for the uptake of naked RNA, human iDCs were pretreated with various inhibitors (dimethyl amiloride, cytochalasin D, LY294002, Rottlerin) and then coincubated for 15 min with luciferase-RNA or Cy3-RNA. After culture for a further 22 h, RNA uptake was quantified in a luciferase test. The mean+SEM is shown. The iDCs coincubated with Cy3-RNA (red) were fixed with paraformaldehyde and counterstained (Hoechst 33342, blue). […] FIG. 6(b-c).

[3] = system: macropinocytosis; experiment: RNA uptake in lymph nodes after in vivo Rottlerin pretreatment, in-vivo bioluminescence; design: species or system C57Bl/6 mice; settings: inguinal lymph nodes pretreated with 10 μM; luciferase-RNA 10 μg intranodally; 24 h
Experimental: To clarify whether macropinocytosis is also the uptake mechanism relevant in vivo for RNA in the lymph node, the inguinal lymph nodes of C57/B16 mice were pretreated with Rottlerin (n=4, 10 μM) and then luciferase-RNA (10 μg) was injected intranodally. After 24 h, the in-vivo bioluminescence signal was measured.

[4] = system: RNA uptake in the lymph nodes; experiment: Effect of Poly I:C on RNA uptake in lymph nodes, in-vivo bioluminescence; design: species or system C57Bl/6 mice; settings: 20 μg s.c.; luciferase-RNA intranodally after 2 or 24 h
Experimental: (e) Effect of Poly I:C on RNA uptake. C57Bl/6 mice (n=4) were injected s.c. with PBS or Poly I:C (20 μg) and after 2 or 24 h, luciferase-RNA was applied intranodally. After 24 h the luciferase signal was quantified in a standard bioluminescence test.
In order to verify to what extent maturing adjuvants can also lead in vivo to a reduction of RNA uptake, we tested the effect of Poly I:C on RNA uptake; cf. FIG. 7(e). For this, C57/Bl6 mice (n=4) were injected s.c. with PBS or Poly I:C (20 μg) and after 2 or 24 h, luciferase-RNA was applied intranodally. The in-vivo bioluminescence was measured after a further 24 h. The mean+SEM is shown.

[5] = system: cell populations of the murine lymph node; experiment: Effects of different Flt3L on the cellular composition in lymph nodes; format: in vivo, C57BL/6 mice; settings: 0.4 mol i.p. day 0; lymph nodes day 10
Text: On day 10 the lymph nodes of the mice were removed and characterized by flow cytometry. Dendritic cells (DCs (marker: CD11c^+/NK1.1^−)), CD4^+ helper T cells (marker: CD3^+/CD4^+/CD8^−/NK1.1^−), CD8^+ T cells (marker: CD3^+/CD8^+/CD4^−/NK1.1^−), CD19^+ B cells (marker: CD19^+/CD3^−/NK1.1^−).
In this experiment Flt3 ligand (Flt3-IgG4) was compared with commercially available Flt3 preparations with respect to the effect on different cell populations of the murine lymph node. A product recombinantly expressed in bacteria (Peprotech Flt3L; Peprotech, Hamburg, Germany) and a product expressed in human HEK293 cells (Humanzyme Flt3L, Humanzyme; Chicago Ill., U.S.A.) were used as commercially available Flt3 preparations. Human IgG4 (Sigma-Aldrich, Deisenhofen, Germany) served as control.
On day 10 both inguinal lymph nodes of the mice were removed, the cell count determined by means of a Neubauer chamber and the cell populations were characterized by flow cytometry.

[6] = Robinson et al., 2003; cited from earlier work

CC(=O)c1c(O)c(C)c(O)c(Cc2c(O)c3c(c(C(=O)/C=C/c4ccccc4)c2O)OC(C)(C)C=C3)c1O [Rottlerin]
vaccine action after inhibition of macropinocytosis [1]: almost complete loss of vaccine action
inhibition of RNA uptake [2]: more than 90%
RNA uptake in the lymph node [3]: drastically reduced

Poly I:C
RNA uptake (in-vivo bioluminescence) [4]: sharp reduction in RNA uptake

B1: Flt3L (Humanzyme): commercially available Flt3 preparation expressed in human HEK293 cells (Humanzyme) (protein, UniProt P49771 27-235, looked up)
Fms-related tyrosine kinase 3 …: TQDCSFQHSPISSDFAVKIRELSDYLLQDYPVTVASNLQDEELCGGLWRLVLAQRWMERLKTVAGSKMQGLLERVNTEIHFVTKCAFQPPPSCLRFVQTNISRLLQETSEQLVALKPWITRQNFSRCLELQCQPDSSTLPPPWSPRPLEATAPTAPQPPLLLLLLLPVGLLLLAAAWCLHWQRTRRRTPRPGEQVPPVPSPQDLLLVEH
expansion of dendritic cells [5]: strong similarity

B2: Flt3L (Peprotech): commercially available Flt3 preparation recombinantly expressed in bacteria (Peprotech) (protein, UniProt P49771 27-235, looked up)
Fms-related tyrosine kinase 3 …: B1 Fms-related tyrosine kinase 3 …
expansion of dendritic cells [5]: only slightly potent

B3: Flt3L without IgG4 fusion: Flt3L without IgG4 fusion, published half-life value (Robinson et al., 2003) (protein, UniProt P49771 27-235, looked up)
Fms-related tyrosine kinase 3 …: B1 Fms-related tyrosine kinase 3 …
published value for the half-life [6]: 5 h
